# ChEMBL document CHEMBL4420076, “Amylin and calcitonin receptor agonist” (2017)
# pEC50, pIC50: −log10 of the molar value. Numbered stars: 1 amine (or outer) side, 2 acyl side, 3 side chain; on linkers, the order of the positions; unused ones are H or OH. Peptide text beside a SMILES is read from it. * marks the point of attachment. C20 diacid = O=C(O)CCCCCCCCCCCCCCCCCCC(=O)*; C18 diacid = O=C(O)CCCCCCCCCCCCCCCCC(=O)*; C16 diacid = O=C(O)CCCCCCCCCCCCCCC(=O)*; γGlu = O=C(O)[C@H](CCC(=O)[*:2])N[*:1]
# Legend:
# [1] = biological target: T1, Calcitonin receptor (Homo sapiens, UniProt P30988); experiment: Agonist activity at human calcitonin receptor expressed in BHK570 cells assessed as increase in intracellular cAMP concentration incubated for 3 hrs in absence of albumin by CRE luciferase reporter gene assay; type: functional, cell-based
# T1 sequence (P30988 whole entry): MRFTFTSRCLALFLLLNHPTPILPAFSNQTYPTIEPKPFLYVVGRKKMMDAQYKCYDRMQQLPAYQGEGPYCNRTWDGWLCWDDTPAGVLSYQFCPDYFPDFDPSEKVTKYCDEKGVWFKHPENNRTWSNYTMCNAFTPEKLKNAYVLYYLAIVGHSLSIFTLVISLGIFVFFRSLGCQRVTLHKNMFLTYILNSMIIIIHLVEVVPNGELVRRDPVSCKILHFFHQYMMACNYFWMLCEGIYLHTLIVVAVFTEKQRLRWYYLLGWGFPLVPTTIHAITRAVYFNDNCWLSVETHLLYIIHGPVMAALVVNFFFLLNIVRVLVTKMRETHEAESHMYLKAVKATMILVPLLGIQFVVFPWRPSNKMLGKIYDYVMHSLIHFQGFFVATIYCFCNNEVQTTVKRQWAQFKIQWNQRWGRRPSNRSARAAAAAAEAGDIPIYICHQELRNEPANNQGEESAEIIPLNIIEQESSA
# [2] = test system: Rattus norvegicus; experiment: Reduction in food intake in Sprague-Dawley rat at 3 nmol/kg measured 0 to 24 hrs post dose relative to control; type: functional; set-up: scale not given: the % may be the effect or the level left
# [3] = biological target: T2, Amylin receptor AMY3; CALCR/RAMP3 (Homo sapiens, UniProt O60896+P30988); experiment: Agonist activity at human amylin receptor expressed in BHK570 cells co-expressing RAMP3 assessed as increase in intracellular cAMP concentration incubated for 3 hrs in absence of albumin by CRE luciferase reporter gene assay; type: functional, cell-based
# T2 sequence (P30988 whole entry): T1 sequence (P30988 whole entry)
# T2 sequence (O60896 whole entry): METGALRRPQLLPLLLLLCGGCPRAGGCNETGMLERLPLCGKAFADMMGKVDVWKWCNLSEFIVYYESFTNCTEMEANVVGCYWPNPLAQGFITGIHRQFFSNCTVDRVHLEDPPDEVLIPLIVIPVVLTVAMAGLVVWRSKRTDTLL
# [4] = Solubility in 100 mM glycylglycine buffer at pH 3.0 incubated for 18 hrs by UPLC analysis; type: physicochemical
# [5] = Solubility in 100 mM glycylglycine buffer at pH 4.0 incubated for 18 hrs by UPLC analysis; type: physicochemical
# [6] = Solubility in 100 mM bistrispropane buffer at pH 6.0 incubated for 18 hrs by UPLC analysis; type: physicochemical
# [7] = biological target: T1, Calcitonin receptor; experiment: Displacement of [125I]-labeled human calcitonin from human calcitonin receptor expressed in BHK tkts13 whole cells incubated for 60 mins by scintillation proximity assay; type: cell-based
# [8] = test system: Rattus norvegicus; experiment: Reduction in food intake in Sprague-Dawley rat at 3 nmol/kg measured 24 to 48 hrs post dose relative to control; type: functional; set-up: scale not given: the % may be the effect or the level left
# [9] = biological target: T2, Amylin receptor AMY3; CALCR/RAMP3; experiment: Displacement of [125I]-labeled rat amylin from human amylin receptor expressed in BHK tkts13 whole cells co-expressing RAMP3 incubated for 60 mins by scintillation proximity assay; type: cell-based
# [10] = Solubility in 100 mM bistrispropane buffer at pH 7.0 incubated for 18 hrs by UPLC analysis; type: physicochemical
# [11] = Solubility in 100 mM glycylglycine buffer at pH 5.0 incubated for 18 hrs by UPLC analysis; type: physicochemical
# [12] = Solubility in 100 mM bistrispropane buffer at pH 6.5 incubated for 18 hrs by UPLC analysis; type: physicochemical
# [13] = Solubility in 100 mM bistrispropane buffer at pH 8.0 incubated for 18 hrs by UPLC analysis; type: physicochemical
# [14] = Solubility in 100 mM bistrispropane buffer at pH 7.5 incubated for 18 hrs by UPLC analysis; type: physicochemical
# [15] = biological target: T1, Calcitonin receptor; experiment: Agonist activity at human calcitonin receptor expressed in BHK570 cells assessed as increase in intracellular cAMP concentration incubated for 3 hrs in presence of 10% FBS by CRE luciferase reporter gene assay; type: functional, cell-based
# [16] = biological target: T2, Amylin receptor AMY3; CALCR/RAMP3; experiment: Agonist activity at human amylin receptor expressed in BHK570 cells co-expressing RAMP3 assessed as increase in intracellular cAMP concentration incubated for 3 hrs in presence of 10% FBS by CRE luciferase reporter gene assay; type: functional, cell-based
pEC50 [1],pEC50 [3],solubility at 18 h [4] [µM],solubility at 18 h [5] [µM],solubility at 18 h [6] [µM],pIC50 [7],pIC50 [9],solubility at 18 h [10] [µM],solubility at 18 h [11] [µM],solubility at 18 h [12] [µM],solubility at 18 h [13] [µM],solubility at 18 h [14] [µM],pEC50 [15],pEC50 [16],SMILES,Activity [2] [%],Activity [8] [%]
11.40,11.10,≥ 200,≥ 200,≥ 200,9.38,9.30,≥ 200,≥ 200,≥ 200,≥ 200,≥ 200,–,–,CC(C)C[C@H](NC(=O)[C@H](C)NC(=O)[C@H](C)NC(=O)[C@@H](NC(=O)[C@H](CO)NC(=O)[C@H](CC(C)C)NC(=O)[C@H](CCC(=O)O)NC(=O)[C@H](CO)NC(=O)[C@H](C)NC(=O)[C@H](CCC(=O)O)NC(=O)CCCCCCCCCCCCCCC(=O)O)[C@@H](C)O)C(=O)NCC(=O)N[C@@H](CCCNC(=N)N)C(=O)N[C@@H](CC(C)C)C(=O)N[C@@H](CO)C(=O)N[C@@H](C)C(=O)N[C@@H](CCC(=O)O)C(=O)N[C@@H](CC(C)C)C(=O)N[C@@H](Cc1cnc[nH]1)C(=O)N[C@@H](CCC(=O)O)C(=O)N[C@@H](CC(C)C)C(=O)N[C@@H](C)C(=O)N[C@H](C(=O)N[C@@H](CC(C)C)C(=O)N1CCC[C@H]1C(=O)N[C@@H](CCCNC(=N)N)C(=O)N[C@H](C(=O)N[C@@H](CCC(=O)O)C(=O)N[C@H](C(=O)NCC(=O)N1CCC[C@H]1C(=O)N[C@@H](CCC(=O)O)C(=O)N[C@@H](CO)C(=O)N1CCC[C@H]1C(N)=O)[C@@H](C)O)[C@@H](C)O)[C@@H](C)O ({C16 diacid}-EASELSTAALGRLSAELHELATLPRTETGPESP-NH2),63,9
11.15,11.00,≥ 200,≥ 200,≥ 200,9.51,9.45,≥ 200,≥ 200,≥ 200,≥ 200,≥ 200,–,–,CC(C)C[C@H](NC(=O)[C@H](CCC(=O)O)NC(=O)[C@H](Cc1cnc[nH]1)NC(=O)[C@H](CC(C)C)NC(=O)[C@H](CCC(=O)O)NC(=O)[C@H](C)NC(=O)[C@H](CO)NC(=O)[C@H](CC(C)C)NC(=O)[C@H](CCCNC(=N)N)NC(=O)CNC(=O)[C@H](CC(C)C)NC(=O)[C@@H](NC(=O)[C@H](C)NC(=O)[C@@H](NC(=O)[C@H](CO)NC(=O)[C@H](CC(C)C)NC(=O)[C@H](CCC(=O)O)NC(=O)[C@@H]1CCCN1C(=O)[C@H](C)NC(=O)[C@H](CCC(=O)O)NC(=O)CCCCCCCCCCCCCCCCC(=O)O)[C@@H](C)O)C(C)C)C(=O)N[C@@H](C)C(=O)N[C@H](C(=O)N[C@@H](CC(C)C)C(=O)N1CCC[C@H]1C(=O)N[C@@H](CCCNC(=N)N)C(=O)N[C@H](C(=O)N[C@@H](CCC(=O)O)C(=O)N[C@H](C(=O)NCC(=O)N1CCC[C@H]1C(=O)N[C@@H](CCC(=O)O)C(=O)N[C@@H](CO)C(=O)N1CCC[C@H]1C(N)=O)[C@@H](C)O)[C@@H](C)O)[C@@H](C)O ({C18 diacid}-EAPELSTAVLGRLSAELHELATLPRTETGPESP-NH2),52,0
10.77,10.70,≥ 200,≥ 200,≥ 200,8.93,8.90,≥ 200,≥ 200,≥ 200,≥ 200,≥ 200,–,–,CC(C)C[C@H](NC(=O)[C@H](C)NC(=O)[C@H](C)NC(=O)[C@@H](NC(=O)[C@H](CO)NC(=O)[C@H](CC(C)C)NC(=O)[C@H](CCC(=O)O)NC(=O)[C@H](CO)NC(=O)[C@H](C)NC(=O)[C@H](CCC(=O)O)NC(=O)CCCCCCCCCCCCCCCCC(=O)O)[C@@H](C)O)C(=O)NCC(=O)N[C@@H](CCCNC(=N)N)C(=O)N[C@@H](CC(C)C)C(=O)N[C@@H](CO)C(=O)N[C@@H](C)C(=O)N[C@@H](CCC(=O)O)C(=O)N[C@@H](CC(C)C)C(=O)N[C@@H](Cc1cnc[nH]1)C(=O)N[C@@H](CCC(=O)O)C(=O)N[C@@H](CC(C)C)C(=O)N[C@@H](C)C(=O)N[C@H](C(=O)N[C@@H](CC(C)C)C(=O)N1CCC[C@H]1C(=O)N[C@@H](CCCNC(=N)N)C(=O)N[C@H](C(=O)N[C@@H](CCC(=O)O)C(=O)N[C@H](C(=O)NCC(=O)N1CCC[C@H]1C(=O)N[C@@H](CCC(=O)O)C(=O)N[C@@H](Cc1cnc[nH]1)C(=O)N1CCC[C@H]1C(N)=O)[C@@H](C)O)[C@@H](C)O)[C@@H](C)O ({C18 diacid}-EASELSTAALGRLSAELHELATLPRTETGPEHP-NH2),–,–
11.15,11.10,≥ 200,–,≥ 200,9.12,–,≥ 200,≥ 200,≥ 200,≥ 200,≥ 200,–,–,CC(C)C[C@H](NC(=O)[C@H](CCC(=O)O)NC(=O)[C@H](C)NC(=O)[C@H](CO)NC(=O)[C@H](CC(C)C)NC(=O)[C@H](CCCNC(=N)N)NC(=O)CNC(=O)[C@H](CC(C)C)NC(=O)[C@@H](NC(=O)[C@H](C)NC(=O)[C@@H](NC(=O)[C@H](CO)NC(=O)[C@H](CC(C)C)NC(=O)[C@H](CCC(=O)O)NC(=O)[C@H](CO)NC(=O)[C@H](C)NC(=O)[C@H](CCC(=O)O)NC(=O)CCCCCCCCCCCCCCCCC(=O)O)[C@@H](C)O)C(C)C)C(=O)N[C@@H](C)C(=O)N[C@@H](CCC(=O)O)C(=O)N[C@@H](CC(C)C)C(=O)N[C@@H](C)C(=O)N[C@H](C(=O)N[C@@H](CC(C)C)C(=O)N1CCC[C@H]1C(=O)N[C@@H](CCCNC(=N)N)C(=O)N[C@H](C(=O)N[C@@H](CCC(=O)O)C(=O)N[C@H](C(=O)NCC(=O)N1CCC[C@H]1C(=O)N[C@@H](CCC(=O)O)C(=O)N[C@@H](CO)C(=O)N1CCC[C@H]1C(N)=O)[C@@H](C)O)[C@@H](C)O)[C@@H](C)O ({C18 diacid}-EASELSTAVLGRLSAELAELATLPRTETGPESP-NH2),73,39
–,10.66,≥ 200,≥ 200,≥ 200,8.53,8.58,≥ 200,–,≥ 200,≥ 200,≥ 200,9.98,9.82,CC(C)C[C@H](NC(=O)[C@H](CCCNC(=N)N)NC(=O)CNC(=O)[C@H](CC(C)C)NC(=O)[C@@H](NC(=O)[C@H](C)NC(=O)[C@@H](NC(=O)[C@H](CO)NC(=O)[C@H](CC(C)C)NC(=O)[C@H](CCC(=O)O)NC(=O)[C@H](CO)NC(=O)[C@H](C)NC(=O)CC[C@H](NC(=O)CCCCCCCCCCCCCCCCCCC(=O)O)C(=O)O)[C@@H](C)O)[C@@H](C)O)C(=O)N[C@@H](CO)C(=O)N[C@@H](C)C(=O)N[C@@H](CCC(=O)O)C(=O)N[C@@H](CC(C)C)C(=O)N[C@@H](Cc1cnc[nH]1)C(=O)N[C@@H](CCC(=O)O)C(=O)N[C@@H](CC(C)C)C(=O)N[C@@H](CO)C(=O)N[C@H](C(=O)N[C@@H](Cc1ccc(O)cc1)C(=O)N1CCC[C@H]1C(=O)N[C@@H](CCCNC(=N)N)C(=O)N[C@H](C(=O)N[C@@H](CCC(=O)O)C(=O)N[C@H](C(=O)NCC(=O)N[C@@H](CO)C(=O)NCC(=O)N[C@@H](CO)C(=O)N1CCC[C@H]1C(N)=O)[C@@H](C)O)[C@@H](C)O)[C@@H](C)O ({C20 diacid-γGlu}-ASELSTATLGRLSAELHELSTYPRTETGSGSP-NH2),–,–
